Assay results as given in US9486507B2, “Pro-coagulant compounds and methods of use thereof” (priority 2011, dated 2016).
“And” between values parts separate entries of the source, which are not always exact repeats. Equal values may be shown once.

Assays:
[1] = target: thrombin (Homo sapiens, UniProt P00734); conditions: thrombin 1.4 nM, conjugate A 10 μM, PBS, 37° C.
Experimental: Conjugate A (21 μL, 0.24 mM) in water was added to 476.5 μL PBS. […] The mixture was incubated at 37° C. Aliquots (60 μL) at various time points were quenched with 1 μL of hirudin (10 μM) and injected into the HPLC (C-18 column, CH3CN/H2O, 0 to 70% over 12 minutes, 60° C. 0.5 mL/min, ? =280 nm).

[2] = target: mouse FIXa (mFIXa) (Mus musculus, UniProt P16294); experiment: FXa generation assay with mouse FIXa; type: biochemical; conditions: mFIXa compared to hFIXa
Source text: The data confirms that the peptide was selected for binding to hFIXa.

[3] = tested on: FVIII deficient human plasma; experiment: Thrombin generation assay (TGA) in FVIII-deficient plasma; type: biochemical; parameters: key to Thrombin Above Baseline (nM): 1-10 nM (1) or 1-29 nM (2) (+); 11-20 nM (1) or 30-59 nM (2) (++); 21-30 nM (1) or 60-90 nM (2) (+++); >30 nM (1) or >90 nM (2) (++++); At or about baseline (−); conditions: HRF FVIII-deficient plasma (1)
[4] = tested on: 10% FVIII-deficient human plasma; experiment: Modified activated partial thromboplastin time (aPTT*) assay; type: biochemical
Experimental: For the activated Partial Thromboplastin Time (aPTT) assay peptides to be tested were first diluted in 10% FVIII-deficient human plasma. For the aPTT* the peptides were diluted in 10% FVIII-deficient human plasma that contained traces of hFIXa (anywhere between 0 and 8.8 nM hFIXa depending on the assay) in Tris/NaCl/BSA buffer. The peptides were incubated for 10 minutes at room temperature and then assayed for clotting on a Sysmex instrument that recorded the clotting time observed for each sample. The times were compared to those of a standard curve derived from standards with known FVIII activity (U/mL) in order to determine the clotting outcome.

[5] = target: T1, FIXa (Homo sapiens, UniProt P00740); experiment: FXa generation assay with human FIXa; type: biochemical; parameters: purchased Haematologic Technologies; conditions: for Vmax: class symbols
[6] = target: T1, FIXa; experiment: Km/Kcat of FIXa for the substrate FX (FXa generation assay); type: biochemical; parameters: purchased Haematologic Technologies; conditions: compound 1 3 μM, compounds 3, 4, 5 1 μM, compound C 10 μM; for Km / kcat: hFIXa 10 nM, FX 10-1000 nM, PL, CaCl2; for Δ kcat: relative to buffer (1.0)
Experimental: To determine the Km and Kcat of FIXa or FVIIa for the substrate FX, the FXa generation assay described above was used with the following modifications. […] Reactions were set up with varying concentrations of FX ranging between 400 and 0.8 nM and the rates of FXa generation were determined for each peptide at the different FX concentrations tested as described above. […] The catalytic constant (Kcat) was calculated by normalizing the Vmax to the enzyme concentration.
FIXa was used at 10 nM, and FX was used at 10-1000 nM. The assay was performed in the presence of phospholipids (PL) and calcium chloride.

[7] = tested on: human HemA (severe) whole blood; experiment: ROTEM in human HemA whole blood; type: biochemical; conditions: 30 min pre-incubation
[8] = tested on: platelets; experiment: Platelet aggregation (aggregometer); type: cell-based; conditions: compound 5 about 30 μM; compound 22 10 μM and 30 μM
Source text: ADP was used as a positive control for platelet aggregation.

[9] = target: T1, FIXa; experiment: Incubation with FIXa in FXa generation assay buffer, LC-MS; type: biochemical; conditions: compound 3 100 μM; FIXa 0, 10 nM, 1 μM; with or without BSA; 3 hours
Experimental: The mixtures were then analyzed by LC-MS.

[10] = tested on: FVIII deficient human plasma; experiment: Rotational thromboelastometry (ROTEM) in FVIII-deficient human plasma; type: biochemical; conditions: for Clotting time, sec (avg.) / α-angle, degrees (avg.): human HemA plasma, lyophilized platelets, 10 fM lipTF
[11] = target: T1, FIXa; experiment: FXa generation assay with compound 3, phospholipid and Gla-domain dependency; type: biochemical; conditions: compound 3 1 μM
Source text: Formation of FXa was monitored using a chromogenic substrate as described in the FXa generation assay directly above (see b.1.).

[12] = tested on: purified recombinant human coagulation factors; experiment: Thrombin generation assay using purified hemostatic components; type: biochemical; conditions: compounds 1 μM; FVIII 0.1 or 1 IU/mL (FIG. 5)
[13] = target: T2, FXa or the prothrombinase complex (Homo sapiens, UniProt P00742); experiment: FXa / prothrombinase activity in purified thrombin generation assay; type: biochemical; conditions: 1 μM; FXa 0.05 ug/mL, with or without FV
T2 construct: Under these conditions FIXa cleaves the zymogen FX into the active form FXa
Experimental: In another experiment it was determined whether or not the compounds of the present disclosure directly enhance the activity of FXa or the prothrombinase complex.

[14] = target: T3, recombinant human factor IXa (hFIXa) (Homo sapiens, UniProt P00740); experiment: Hydrogen/deuterium exchange mass spectrometry (H/DX-MS) of hFIXa; type: binding; conditions: hFIXa 1 μM with vs without compound 4 12 μM
T3 construct: purchased Hematologic Technologies
Experimental: Hydrogen/deuterium exchange mass spectrometry (H/DX-MS) was utilized to study the higher-order structural analysis of recombinant human factor IXa (hFIXa) in combination with and without compound 4. The general method can be found in the following references: Engen and Smith (2001) Anal. Chem. 73, 256A-265A.; Wales and Engen (2006) Mass Spectrum. Rev. 25, 158-170.
FIXa samples were equilibrated at ambient temperature (20±1° C.) for 1 hour before labeling with deuterated buffer (reaction buffers described above). The samples were then diluted 1:15 with deuterated buffer and incubated, allowing hydrogen exchange to occur for various amounts of time (10 seconds, 1, 10, 60, and 240 minutes), before the reaction was quenched with a 1:1 dilution of 200 mM citrate, 8 M guanidinium HCl, and 0.5 M TCEP, pH 2.33. Quenched samples were then incubated for 20 seconds before being further diluted 1:1 with 0.1% formic acid and immediately injected into the LC-MS system for analysis.
Approximately 7 μg of exchanged/quenched FIXa was injected onto an immobilized pepsin column where the digestion and peptide trapping were performed for 3 minutes with a flow rate of 0.1 mL/min in 0.1% formic acid at 10° C. […] Mass spectra were acquired and peptic peptides were identified using a combination of exact mass and MS, aided by Waters Identity software (Silva J C et al., 2006. Absolute quantification of proteins by LCMSE: a virtue of parallel MS acquisition. Mol Cell Proteomics, 5(1): p144). […] The amount of deuterium in each peptide was determined by subtracting the mass of the undeuterated peptide from the mass of the deuterated peptide, incubated at various HDX time points (which were uncorrected for any back exchange). […]
The difference in deuterium exchange between FIXa and FIXa with compound 4 was determined by subtracting the mass of each FIXa peptide from the mass of the corresponding FIXa with compound 4. […] The sum of these differences, across all time points, was calculated. […]

[15] = aPTT*, D-amino acid scan of compound 1, listed as WT
[16] = FXa generation assay, 10 nM hFIXa, 100 nM hFX

Cys(Acm)-Gly-Gly-Gly-Gly-Dphe-Pip-Arg-PABC-rRAPGKLTCLASYCWLFWTGIA-NH2 (Disulfide) [conjugate A]
incubation time to full cleavage by thrombin [1]: about 60 min

KLTCLASYCWLF [Compound 1]
Vmax [2]: greatly reduced | Thrombin Above Baseline (nM) ([3]; 2.5 μM): − | Thrombin Above Baseline (nM) ([3]; 5 μM): − | Thrombin Above Baseline (nM) ([3]; 10 μM): − | Thrombin Above Baseline (nM) ([3]; 20 μM): − | Clotting time ([4]; aPTT* with FIXa, 5 μM): 47.9 s | Clotting time, sec ([4]; aPTT* with FIXa, 5 μM): 47.3; sec | Clotting time ([4]; aPTT* with FIXa, 10 μM): 43.3 s | Clotting time, sec ([4]; aPTT* with FIXa, 10 μM): 44.2; sec | Clotting time ([4]; aPTT* with FIXa, 20 μM): 43.8 s | Clotting time, sec ([4]; aPTT* with FIXa, 20 μM): 43.5; sec | Clotting time [4, 15]: 47.8 s | Clotting time, sec [4, 15]: 47.9; sec | Clotting time ([4]; aPTT*, FIXa 1 nM): 107.4 s | Clotting time, sec ([4]; aPTT*, FIXa 1 nM): 105.8; sec | Clotting time ([4]; aPTT*, FIXa 2 nM): 82.8 s | Clotting time, sec ([4]; aPTT*, FIXa 2 nM): 84.4; sec | Clotting time ([4]; aPTT*, FIXa 4 nM): 50.6 s | Clotting time, sec ([4]; aPTT*, FIXa 4 nM): 50.9; sec | Clotting time ([4]; aPTT*, FIXa 8 nM): 40.6 s | Clotting time, sec ([4]; aPTT*, FIXa 8 nM): 40.1; sec | Vmax [5, 16]: (+++) ((+++)>2) | Vmax (mOD/min min) ([5]; PL: No): 2.60 mOD/min min | Vmax (mOD/min min) ([5]; PL: Yes): 3.98 mOD/min min | Km [6]: 24 ± 4.8 nM | kcat [6]: 0.0144 min⁻¹ | Δ kcat [6]: 160

PRIRTVGPGSRSASGKLTCLASYCWLFWTGIA [Compound 21]
Clotting time, sec ([7]; 2.5 μM): 1,057 sec and 1,090 sec | α-angle, degrees ([7]; 2.5 μM): 32 degrees | Clotting time ([7]; 5 μM): 930 s | α-angle, degrees ([7]; 5 μM): 32 degrees | Clotting time ([7]; 10 μM): 748 s and 703 s | α-angle, degrees ([7]; 10 μM): 44 degrees and 52 degrees | Clotting time ([7]; 20 μM): 952 s and 625 s | α-angle, degrees ([7]; 20 μM): 42 degrees and 43 degrees | Vmax [5, 16]: (++++) ((++++)>3)

PRIRTVGPGSRSASGKSTCLASYCWLFWTGIA [Compound 22]
induction of platelet aggregation [8]: did also not induce platelet aggregation

RRAPGKLQCLASYCWLFWTGIA [Compound 3]
substrate for FIXa (LC-MS) [9]: not a substrate for FIXa | clotting time and α-angle with neutralizing anti-FVIII antibody ([10]; 10 uM, polyclonal sheep IgG against human FVIII, 1:100): independent of residual FVIII | clotting time compared with FVIII (100% FVIII = 1 IU/mL) ([10]; compound 3 at 5 μM, faster than): > 100 % FVIII | α-angle corresponding to FVIII ([10]; compound 3 at 10 μM): about 20 % FVIII | Clotting time, sec (avg.) ([10]; 0.625 μM): 792 s | α-angle, degrees (avg.) ([10]; 0.625 μM): 29 degrees | Clotting time, sec (avg.) ([10]; 2.5 μM): 452 s | α-angle, degrees (avg.) ([10]; 2.5 μM): 33 degrees | Clotting time, sec (avg.) ([10]; 5 μM): 329 s | α-angle, degrees (avg.) ([10]; 5 μM): 38 degrees | Clotting time, sec (avg.) ([10]; 10 μM): 205 s | α-angle, degrees (avg.) ([10]; 10 μM): 51 degrees | Clotting time ([4]; aPTT*, exogenous hFIXa 0.5 nM): 115.2 s | Clotting time, sec ([4]; aPTT*, exogenous hFIXa 0.5 nM): 115.6; sec | Clotting time ([4]; aPTT*, exogenous hFIXa 8.8 nM): 41.9 s | Clotting time, sec ([4]; aPTT*, exogenous hFIXa 8.8 nM): 45.4; sec | Percentage of control (FXa generation) ([11]; +PL): 100% | Percentage of control (FXa generation) ([11]; +PL +anti-FIX IgG (Gla)): 58.0% | Percentage of control (FXa generation) ([11]; −PL): 90% | Vmax ([5]; FXa generation assay using human FIXa): (++++) ((++++)>3) | Vmax (mOD/min min) ([5]; PL: No): 2.77 mOD/min min | Vmax (mOD/min min) ([5]; PL: Yes): 3.90 mOD/min min | Km [6]: 16 ± 3.5 nM | kcat [6]: 0.0177 min⁻¹ | Δ kcat [6]: 197

RRAPGKLTCLASYCWLFWTGIA [Compound 4]
thrombin generation [12]: induce thrombin generation | catalytic activity of FXa or the prothrombinase complex [13]: did not substantially increase the catalytic activity of FXa or the prothrombinase complex | FIXa peptide with most important significant difference in H/D exchange [14]: heavy chain peptide 177-185 | difference index DI(1) [14]: 2 | difference index DI(2) [14]: 0 | Vmax [5, 16]: (+++) ((+++)>2) | Km [6]: 11 ± 2.7 nM | kcat [6]: 0.0171 min⁻¹ | Δ kcat [6]: 190
